Assay results from US11192891B2, “Diazaspiro ROCK inhibitors” (BRISTOL-MYERS SQUIBB COMPANY, priority 2017, dated 2021).
Where a name gives a salt, the structure may show the parent alone.

Target: ROCK2 (Homo sapiens, UniProt O75116)
Assay: ROCK kinase inhibition assay, FITC peptide substrate, LABCHIP 3000 readout
Assay type: biochemical
Conditions: 5 μM ATP, 1.5 μM peptide substrate
Outline: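 Rho kinase variants started the reaction with compound present (DMSO <2%); after incubation, EDTA stop, and phosphorylated and non-phosphorylated peptide separated by microfluidic electrophoresis. Dose-response format, inhibition calculated at each concentration.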

Sequence of ROCK2 (O75116 whole entry, species assumed): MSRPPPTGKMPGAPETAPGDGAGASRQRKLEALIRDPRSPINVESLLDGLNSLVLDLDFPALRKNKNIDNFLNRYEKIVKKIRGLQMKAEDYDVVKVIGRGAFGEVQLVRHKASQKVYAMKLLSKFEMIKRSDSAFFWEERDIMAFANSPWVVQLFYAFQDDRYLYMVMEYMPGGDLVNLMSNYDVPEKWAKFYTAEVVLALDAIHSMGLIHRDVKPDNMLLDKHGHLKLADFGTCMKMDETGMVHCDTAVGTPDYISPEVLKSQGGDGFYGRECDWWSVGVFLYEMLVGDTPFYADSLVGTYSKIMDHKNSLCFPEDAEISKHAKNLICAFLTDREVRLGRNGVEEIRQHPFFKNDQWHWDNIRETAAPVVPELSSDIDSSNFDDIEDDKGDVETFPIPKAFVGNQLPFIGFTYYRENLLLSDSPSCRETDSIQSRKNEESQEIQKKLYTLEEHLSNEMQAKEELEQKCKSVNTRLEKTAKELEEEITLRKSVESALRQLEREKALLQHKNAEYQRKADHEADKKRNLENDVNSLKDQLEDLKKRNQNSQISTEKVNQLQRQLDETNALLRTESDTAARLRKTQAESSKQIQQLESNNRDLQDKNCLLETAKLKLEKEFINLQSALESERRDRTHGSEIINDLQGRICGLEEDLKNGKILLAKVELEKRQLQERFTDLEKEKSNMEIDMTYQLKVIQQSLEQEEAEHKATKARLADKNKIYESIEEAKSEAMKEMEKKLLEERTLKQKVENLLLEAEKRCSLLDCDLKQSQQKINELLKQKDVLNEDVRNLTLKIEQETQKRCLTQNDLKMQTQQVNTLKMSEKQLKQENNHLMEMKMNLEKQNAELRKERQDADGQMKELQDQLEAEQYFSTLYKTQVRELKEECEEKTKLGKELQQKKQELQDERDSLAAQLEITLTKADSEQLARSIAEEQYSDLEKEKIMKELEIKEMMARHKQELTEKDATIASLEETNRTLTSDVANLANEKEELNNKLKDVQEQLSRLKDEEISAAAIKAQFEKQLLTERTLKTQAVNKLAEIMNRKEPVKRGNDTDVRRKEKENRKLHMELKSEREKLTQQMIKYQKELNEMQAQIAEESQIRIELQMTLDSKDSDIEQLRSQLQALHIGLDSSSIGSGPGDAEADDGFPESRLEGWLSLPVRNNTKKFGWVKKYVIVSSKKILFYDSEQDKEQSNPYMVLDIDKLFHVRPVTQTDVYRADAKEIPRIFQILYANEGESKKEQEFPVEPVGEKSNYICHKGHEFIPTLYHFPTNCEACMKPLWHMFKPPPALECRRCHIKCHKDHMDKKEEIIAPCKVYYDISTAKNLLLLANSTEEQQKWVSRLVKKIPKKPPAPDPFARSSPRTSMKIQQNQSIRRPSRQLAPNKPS

| SMILES | IC50 [nM] |
| --- | --- |
| COc1cc(N2CCC3(CCN(C(=O)c4ccc5c(cnn5C)c4)CC3)C2=O)ccc1-c1cn[nH]c1 [Example 152, 2-[3-methoxy-4-(1H-pyrazol-4-yl)phenyl]-8-(1-methyl-1H-indazole-5-carbonyl)-2,8-diazaspiro[4.5]decan-1-one] | 6.2 |
| COc1cc(N2CCC3(CCN(C(=O)c4ccc(N5CCN(C(C)CN(C)C)CC5)cc4)CC3)C2=O)ccc1-c1cn[nH]c1 (stereo not shown) [Example 232, 8-(4-{4-[1-(dimethylamino)propan-2-yl]piperazin-1-yl}benzoyl)-2-[3-methoxy-4-(1H-pyrazol-4-yl)phenyl]-2,8-diazaspiro[4.5]decan-1-one] | 3.1 |
| COc1cc(N2CCC3(CCN(C(=O)c4ccc(-c5cccnc5)cc4)CC3)C2=O)ccc1-c1cn[nH]c1 [Example 158, 2-[3-methoxy-4-(1H-pyrazol-4-yl)phenyl]-8-[4-(pyridin-3-yl)benzoyl]-2,8-diazaspiro[4.5]decan-1-one] | 4.1 |
| Cn1nc(C(=O)N2CCC3(CC2)CCN(c2ccc(-c4cn[nH]c4)cc2)C3=O)c2ccccc21 [Example 6, 8-(1-methyl-1H-indazole-3-carbonyl)-2-[4-(1H-pyrazol-4-yl)phenyl]-2,8-diazaspiro[4.5]decan-1-one] | 143 |
| COc1ccc(C(=O)N2CCC3(CC2)CCN(c2ccc(-c4cn[nH]c4)c(OC)c2)C3=O)c(Br)c1 [Example 161, 8-(2-bromo-4-methoxybenzoyl)-2-[3-methoxy-4-(1H-pyrazol-4-yl)phenyl]-2,8-diazaspiro[4.5]decan-1-one] | 17 |
| COc1cc(N2CCC3(CCN(C(=O)c4cc(C5CC5)on4)CC3)C2=O)ccc1-c1cn[nH]c1 [Example 100, 8-(5-cyclopropyl-1,2-oxazole-3-carbonyl)-2-[3-methoxy-4-(1H-pyrazol-4-yl)phenyl]-2,8-diazaspiro[4.5]decan-1-one] | 6 |
| COc1cc(N2CCC3(CCN(C(=O)c4cccn4C)CC3)C2=O)ccc1-c1cn[nH]c1 [Example 62, 2-[3-methoxy-4-(1H-pyrazol-4-yl)phenyl]-8-(1-methyl-1H-pyrrole-2 carbonyl)-2,8-diazaspiro[4.5]decan-1-one] | 1430 |
| COc1cc(N2CCC3(CCN(C(=O)c4c[nH]c5ccc(C#N)cc45)CC3)C2=O)ccc1-c1cn[nH]c1 [Example 201, 3-{2-[3-methoxy-4-(1H-pyrazol-4-yl)phenyl]-1-oxo-2,8-diazaspiro[4.5]decane-8-carbonyl}-1H-indole-5-carbonitrile] | 718 |
| COc1cc(N2CCC3(CCN(C(=O)c4cc5ccccc5s4)CC3)C2=O)ccc1-c1cn[nH]c1 [Example 76, 8-(1-benzothiphene-2-carbonyl)-2-[3-methoxy-4-(1H-pyrazol-4-yl)phenyl]-2,8-diazaspiro[4.5]decan-1-one] | 27 |
| COc1ccc(C(=O)N2CCC3(CC2)CCN(c2ccc(-c4cn[nH]c4)c(OC)n2)C3=O)cc1 [Example 39, 2-[6-methoxy-5-(1H-pyrazol-4-yl)pyridin-2-yl]-8-(4-methoxybenzoyl)-2,8-diazaspiro[4.5]decan-1-one] | 4 |
| COc1ccc(C(=O)N2CCC3(CC2)CCN(c2cccc(-c4ccc5cn[nH]c5c4)c2)C3=O)cc1 [Example 50] | 1680 |
| COc1cc(N2CCC3(CCN(C(=O)c4ccc(C5CC5)cc4)CC3)C2=O)ccc1-c1cn[nH]c1 [Example 19, 8-(4-cyclopropylbenzoyl)-2-[3-methoxy-4-(1H-pyrazol-4-yl)phenyl]-2,8-diazaspiro[4.5]decan-1-one] | 10 |
| COc1cc(N2CCC3(CCN(C(=O)c4ccc(N5CCN(C(C)C)CC5)cc4)CC3)C2=O)ccc1-c1cn[nH]c1 [Example 233, 2-[3-methoxy-4-(1H-pyrazol-4-yl)phenyl]-8-{4-[4-(propan-2-yl)piperazin-1-yl]benzoyl}-2,8-diazaspiro[4.5]decan-1-one] | 0.2 |
| O=C1N(c2ccc(-c3cn[nH]c3)cc2)CCC12CCNCC2 [Intermediate 3, 2-(4-(1H-pyrazol-4-yl)phenyl)-2,8-diazaspiro[4.5]decan-1-one, TFA] | 1010 |
| COc1cc(N2CCC3(CCN(C(=O)c4cc(C5CC5)n[nH]4)CC3)C2=O)ccc1-c1cn[nH]c1 [Example 111, 8-(3-cyclopropyl-1H-pyrazole-5-carbonyl)-2-[3-methoxy-4-(1H-pyrazol-4-yl)phenyl]-2,8-diazaspiro[4.5]decan-1-one] | 17 |
| COc1cc(N2CCC3(CCN(C(=O)c4ccc5cnccc5c4)CC3)C2=O)ccc1-c1cn[nH]c1 [Example 166, 8-(isoquinoline-6-carbonyl)-2-[3-methoxy-4-(1H-pyrazol-4-yl)phenyl]-2,8-diazaspiro[4.5]decan-1-one] | 33 |
| COc1cc(N2CCC3(CCN(C(=O)c4ccoc4)CC3)C2=O)ccc1-c1cn[nH]c1 [Example 65, 8-(furan-3-carbonyl)-2-[3-methoxy-4-(1H-pyrazol-4-yl)phenyl]-2,8-diazaspiro[4.5]decan-1-one] | 752 |
| COc1cc(N2CCC3(CCN(C(=O)c4cccnc4)CC3)C2=O)ccc1-c1cn[nH]c1 [Example 73, 2-[3-methoxy-4-(1H-pyrazol-4-yl)phenyl]-8-(pyridine-3-carbonyl)-2,8-diazaspiro[4.5]decan-1-one] | 414 |
| COc1ccc(C(=O)N2CCC3(CCN(c4ccc(-c5cn[nH]c5)cc4)C3=O)C2)cc1 (stereo not shown) [Example 45, 7-(4-methoxybenzoyl)-2-[4-(1H-pyrazol-4-yl)phenyl]-2,7-diazaspiro[4.4]nonan-1-one] | 180 |
| COc1cc(N2CCC3(CCN(C(=O)c4cn5nc[nH]c(=O)c5c4C)CC3)C2=O)ccc1-c1cn[nH]c1 [Example 133, 2-[3-methoxy-4-(1H-pyrazol-4-yl)phenyl]-8-{5-methyl-4-oxo-3H,4H-pyrrolo[2,1-f][1,2,4]triazine-6-carbonyl}-2,8-diazaspiro[4.5]decan-1-one] | 88 |
| COc1ccc(C(=O)N2CCC3(CC2)CCN(c2cccc(-c4ccc5[nH]ncc5c4)c2)C3=O)cc1 [Example 52, 2-[3-(1H-indazol-5-yl)phenyl]-8-(4-methoxybenzoyl)-2,8-diazaspiro[4.5]decan-1-one] | 1870 |
| COc1cc(N2CCC3(CCN(C(=O)c4ccc(N5CCCCC5=O)cc4)CC3)C2=O)ccc1-c1cn[nH]c1 [Example 142, 2-[3-methoxy-4-(1H-pyrazol-4-yl)phenyl]-8-[4-(2-oxopiperidin-1-yl)benzoyl]-2,8-diazaspiro[4.5]decan-1-one] | 8.8 |
| COc1cc(N2CCC3(CCN(C(=O)c4ccc5nc(-c6ccncc6)[nH]c5c4)CC3)C2=O)ccc1-c1cn[nH]c1 [Example 182, 2-[3-methoxy-4-(1H-pyrazol-4-yl)phenyl]-8-[2-(pyridin-4-yl)-1H-1,3-benzodiazole-6-carbonyl]-2,8-diazaspiro[4.5]decan-1-one] | 16 |
| COC(=O)c1ccc(C(=O)N2CCC3(CC2)CCN(c2ccc(-c4cn[nH]c4)c(OC)c2)C3=O)cc1 [Example 24, methyl 4-{2-[3-methoxy-4-(1H-pyrazol-4-yl)phenyl]-1-oxo-2,8-diazaspiro[4.5]decane-8-carbonyl}benzoate] | 23 |
| COc1cc(N2CCC3(CCN(C(=O)c4ccc(C(=O)NCC5CC5)cc4)CC3)C2=O)ccc1-c1cn[nH]c1 [Example 26, N-(cyclopropylmethyl)-4-{2-[3-methoxy-4-(1H-pyrazol-4-yl)phenyl]-1-oxo-2,8-diazaspiro[4.5]decane-8-carbonyl}benzamide] | 119 |
